Results as given in US20060095982A1 (priority 2002, published 2006).
Marks after values point to notes of the source that are not given here.

How the values were obtained:
[1] = system: WT tobacco plants; experiment: Plant growth and tolerance on Hg-amended soil (dry weight, root length), WT
[2] = system: WT tobacco plants; experiment: Speciation of Hg by X-ray absorption spectroscopy, WT
[3] = system: Salvia natans; conditions: 5 μg/ml HgCl2; cited from earlier work
[4] = system: mer-AB transgenic tobacco shoots and roots; experiment: Speciation of Hg by X-ray absorption spectroscopy, transgenic plants; conditions: 100 μM for 15 d
[5] = system: chloroplast engineered pLDR-merAB and pLDR-merAB 3′UTR tobacco plants; experiment: Plant growth and tolerance on Hg-amended soil (dry weight, root length), transgenic lines
[6] = system: WT tobacco plant (Petit Havana); experiment: Hg accumulation in shoots and roots (CVAAS), WT
[7] = system: Bacopa monnieri; conditions: 5 μg/ml HgCl2; cited from earlier work
[8] = system: transgenic tobacco lines 5A (pLDR-MerAB) and 9 (pLDR-MerAB-3′UTR); experiment: Hg accumulation in shoots and roots (CVAAS), transgenic lines
[9] = system: E. coli cells containing pLDR-MerAB and pLDR-MerAB-3′UTR; experiment: Mercury resistance bioassay in bacteria, transformed clones; conditions: 24 hours at 37° C.
[10] = system: Untransformed E. coli cells (XL1-blue); experiment: Mercury resistance bioassay in bacteria, untransformed control; conditions: 25 μM HgCl2
[11] = system: leaf disks of transgenic tobacco lines; conditions: 10 μM PMA
[12] = system: merAB seedlings (pLDR-MerAB and pLDR-MerAB-3′UTR clones); conditions: 14 days
[13] = system: transgenic tobacco lines 5A (pLDR-MerAB) and 9 (pLDR-MerAB-3′UTR)
[14] = system: leaf disks of wild type tobacco; conditions: 10 μM PMA
[15] = system: wild type tobacco plants (Petit Havana); conditions: 14 days
[16] = system: wild type tobacco plants; conditions: increase in PMA from 0 to 400 μM in soil, 14 d
[17] = system: Chlorella; experiment: Preliminary heavy metal tolerance of wild-type Chlorella; conditions: preliminary studies

In the case of [Cl][Hg][Cl] [HgCl2, mercuric chloride], the “effect on root lengths of WT” value ([1]; concentration in soil from 0 to 300 μM) is listed as “not significantly affected”, the “form of mercury accumulated by WT plants (XAS edge-fitting)” value [2] is listed as “entirely in the form of the mercury supplied” and the “reduction of chlorophyll content” value [3] is listed as 26%. The “share of accumulated mercury in inorganic Hg-like form (XAS curve fitting)” value [4] was 77%, the “share of accumulated mercury in organic Hg-like form (XAS curve fitting)” value [4] was 33% and the “difference between dry weights of WT and transgenic lines” value ([5]; concentration from 0 to 300 μM in soil) was “no significant differences”. The “effect on root lengths of transgenic lines” value ([5]; concentration in soil from 0 to 300 μM, compared to WT) was “increased the roots lengths”, the “toxicity to merAB-tobacco plants relative to PMA” value ([5]; supplied at the same concentration) was “less toxic” and the “Hg accumulation, Root, WT” value ([6]; soil amended with 100 μM) was 97.04. The “Hg accumulation, Shoot, WT” value ([6]; soil amended with 100 μM) was 4.74, the “Hg accumulation, Root, WT” value ([6]; soil amended with 200 μM) was 143.8 and the “Hg accumulation, Shoot, WT” value ([6]; soil amended with 200 μM) was 0.57. The “Hg accumulation, Root, WT” value ([6]; soil amended with 300 μM) was 120.1, the “Hg accumulation, Shoot, WT” value ([6]; soil amended with 300 μM) was 0.23 and the “reduction of chlorophyll content” value [7] was 35%. For the same compound, the “mercury accumulated in shoots of transgenic plants relative to WT” value ([8]; 100 μM) was 3 times, the “mercury accumulated in shoots of transgenic plants relative to WT” value ([8]; 200 μM) was 9 times and the “Hg accumulation, Root, 5A” value ([8]; soil amended with 100 μM) was 115.1. The “Hg accumulation, Root, 9” value ([8]; soil amended with 100 μM) was 114.8, the “Hg accumulation, Shoot, 5A” value ([8]; soil amended with 100 μM) was 7.42 and the “Hg accumulation, Shoot, 9” value ([8]; soil amended with 100 μM) was 6.27. The “Hg accumulation, Root, 5A” value ([8]; soil amended with 200 μM) was 215.5, the “Hg accumulation, Root, 9” value ([8]; soil amended with 200 μM) was 149.5 and the “Hg accumulation, Shoot, 5A” value ([8]; soil amended with 200 μM) was 6.4**. For the same compound, the “Hg accumulation, Shoot, 9” value ([8]; soil amended with 200 μM) was 4.5*, the “Hg accumulation, Root, 5A” value ([8]; soil amended with 300 μM) was 333.8* and the “Hg accumulation, Root, 9” value ([8]; soil amended with 300 μM) was 377.4. The “Hg accumulation, Shoot, 5A” value ([8]; soil amended with 300 μM) was 0.6*, the “Hg accumulation, Shoot, 9” value ([8]; soil amended with 300 μM) was 0.7* and the “growth in liquid broth” value ([9]; 25 and 50 μM HgCl2, LB broth) was “able to grow”. The “concentrations of HgCl2 in which cells were able to grow” value ([9]; solid agar plates, LB) was “up to 100 μM” and the “growth of untransformed cells” value [10] was “unable to grow”.

With CC(=O)[O-].[Hg+][c]1ccccc1 [PMA, phenylmercuric acetate] the “average reduction of root length” value ([1]; WT, concentration increased from 0 μM to 300 μM) was 6 cm, the “dry weights of WT shoots and roots” value ([1]; concentration increased from 0 to 300 μM in soil, 15 days) was “decreased progressively” and the “chlorophyll content of leaf disks” value [11] was “markedly increased”. For the same compound, the “form of mercury accumulated by WT plants (XAS edge-fitting)” value [2] was “entirely in the form of the mercury supplied”, the “survival of merAB seedlings” value ([12]; 200 μM PMA in soil) was “survived” and the “PMA concentration at which seedlings grew well” value ([12]; soil, both transgenic clones) was “up to 100 μM”. The “concentration tolerated when grown in soil” value ([13]; chloroplast transformed lines) was “up to 400 μM”, the “total dry weight of transgenic plants” value ([13]; increase in PMA until PMA reached 400 μM, soil, 14 d) was “no decrease in total dry weight” and the “average reduction of root length” value ([5]; both transgenic lines, concentration increased from 0 μM to 300 μM) was 4 cm. For the same compound, the “dry weights of transgenic lines relative to WT” value ([5]; under PMA treatment) was 2 fold, the “chlorophyll content of leaf disks” value [14] was “reduced” and the “survival of wild type plants” value ([15]; 50 μM PMA in soil) was “barely survived”. For the same compound, the “effect on wild type plants” value ([15]; 100 and 200 μM PMA in soil) was “lethal” and the “total dry weight of wild type plants” value [16] was “decreased progressively”.

For O=S(=O)([O-])[O-].[Cd+2] [cadmium sulfate], the “level tolerated by Chlorella” value [17] was “at least 200 μM”.
